What was measured:
[1] = DRUGMATRIX: beta-Lactamase enzyme inhibition (substrate: Nitrocefin); parameters: species or system Bacillus cereus; conditions: Not Active = under 50% inhibition at 10 µM
[2] = biological target: 5-hydroxytryptamine receptor 6 (Homo sapiens, UniProt P50406); assay type: cell membranes, HeLa, Membrane; conditions: for Ki: read-out: Ki; for all read-outs here: in other assays of this panel Not Active means under 50% inhibition at 10 µM
D(4) dopamine receptor = biological target: T1, D(4) dopamine receptor (Homo sapiens, UniProt P21917); experiment: DRUGMATRIX: Dopamine D4.2 radioligand binding (ligand: [3H] Spiperone); assay type: cell membranes, CHO-K1, Membrane; conditions: cho-k1; Not Active = under 50% inhibition at 10 µM
T1 sequence (P21917 whole entry): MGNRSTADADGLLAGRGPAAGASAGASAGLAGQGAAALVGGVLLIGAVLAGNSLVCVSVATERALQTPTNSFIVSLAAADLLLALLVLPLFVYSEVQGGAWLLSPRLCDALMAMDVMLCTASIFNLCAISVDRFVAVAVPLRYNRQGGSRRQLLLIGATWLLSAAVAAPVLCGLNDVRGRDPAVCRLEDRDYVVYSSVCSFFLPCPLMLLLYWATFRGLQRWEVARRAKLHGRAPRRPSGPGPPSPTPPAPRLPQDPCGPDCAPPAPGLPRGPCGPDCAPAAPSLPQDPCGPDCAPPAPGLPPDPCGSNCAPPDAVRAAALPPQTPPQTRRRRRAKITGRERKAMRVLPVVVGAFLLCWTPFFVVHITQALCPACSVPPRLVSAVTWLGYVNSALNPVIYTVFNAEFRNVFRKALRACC

[3] = DRUGMATRIX: Glutamate, AMPA radioligand binding (ligand: [3H] AMPA); assay type: cell membranes, Rattus norvegicus, Wistar, Cerebral cortex, Membrane; conditions: Not Active = under 50% inhibition at 10 µM
[4] = biological target: T2, Angiotensin-converting enzyme (Oryctolagus cuniculus, UniProt P12822); experiment: biochemical; assay type: tissue-based, Lung;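 note: enzymatic inhibition of angiotensin-converting enzyme measured with FAPGG as the substrate; in other assays of this panel Not Active means under 50% inhibition at 10 µM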
T2 sequence (P12822 whole entry): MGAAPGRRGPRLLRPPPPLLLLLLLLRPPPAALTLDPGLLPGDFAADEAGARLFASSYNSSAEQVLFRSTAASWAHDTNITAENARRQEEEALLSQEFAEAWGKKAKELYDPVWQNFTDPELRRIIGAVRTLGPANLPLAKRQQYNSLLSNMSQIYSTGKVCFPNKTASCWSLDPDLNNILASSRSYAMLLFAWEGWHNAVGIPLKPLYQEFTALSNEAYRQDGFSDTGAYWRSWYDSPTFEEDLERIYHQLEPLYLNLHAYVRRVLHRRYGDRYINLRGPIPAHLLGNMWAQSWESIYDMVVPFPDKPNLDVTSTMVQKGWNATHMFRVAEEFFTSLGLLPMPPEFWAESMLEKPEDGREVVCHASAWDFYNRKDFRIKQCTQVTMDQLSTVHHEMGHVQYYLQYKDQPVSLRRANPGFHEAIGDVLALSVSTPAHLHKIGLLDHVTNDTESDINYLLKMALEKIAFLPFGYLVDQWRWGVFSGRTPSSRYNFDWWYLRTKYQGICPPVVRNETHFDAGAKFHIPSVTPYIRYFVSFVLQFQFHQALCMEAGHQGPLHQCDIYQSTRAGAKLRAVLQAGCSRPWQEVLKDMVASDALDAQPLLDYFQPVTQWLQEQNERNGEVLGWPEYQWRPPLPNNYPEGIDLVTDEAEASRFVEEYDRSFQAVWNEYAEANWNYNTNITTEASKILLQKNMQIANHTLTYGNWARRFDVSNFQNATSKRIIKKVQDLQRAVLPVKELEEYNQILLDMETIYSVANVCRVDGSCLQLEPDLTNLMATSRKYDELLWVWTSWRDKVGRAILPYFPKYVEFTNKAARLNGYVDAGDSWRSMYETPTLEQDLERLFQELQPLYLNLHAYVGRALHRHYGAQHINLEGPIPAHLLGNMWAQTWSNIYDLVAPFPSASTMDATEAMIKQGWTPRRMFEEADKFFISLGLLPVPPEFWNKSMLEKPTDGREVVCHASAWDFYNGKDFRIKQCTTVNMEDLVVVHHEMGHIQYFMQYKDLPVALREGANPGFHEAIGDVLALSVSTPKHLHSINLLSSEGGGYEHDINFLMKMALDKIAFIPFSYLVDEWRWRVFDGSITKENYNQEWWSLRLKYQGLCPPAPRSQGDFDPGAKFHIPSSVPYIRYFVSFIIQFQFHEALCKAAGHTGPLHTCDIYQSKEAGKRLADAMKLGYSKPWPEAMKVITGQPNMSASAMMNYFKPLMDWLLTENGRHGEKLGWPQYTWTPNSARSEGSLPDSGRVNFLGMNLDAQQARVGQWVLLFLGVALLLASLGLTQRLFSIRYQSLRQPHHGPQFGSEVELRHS

Adenosine receptor A1 = biological target: T3, Adenosine receptor A1 (Homo sapiens, UniProt P30542); assay type: cell membranes, CHO, Membrane; conditions: cho;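 note: radioligand binding assay at the adenosine A1 receptor, with DPCPX serving as the labelled ligand; in other assays of this panel Not Active means under 50% inhibition at 10 µM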
T3 sequence (P30542 whole entry): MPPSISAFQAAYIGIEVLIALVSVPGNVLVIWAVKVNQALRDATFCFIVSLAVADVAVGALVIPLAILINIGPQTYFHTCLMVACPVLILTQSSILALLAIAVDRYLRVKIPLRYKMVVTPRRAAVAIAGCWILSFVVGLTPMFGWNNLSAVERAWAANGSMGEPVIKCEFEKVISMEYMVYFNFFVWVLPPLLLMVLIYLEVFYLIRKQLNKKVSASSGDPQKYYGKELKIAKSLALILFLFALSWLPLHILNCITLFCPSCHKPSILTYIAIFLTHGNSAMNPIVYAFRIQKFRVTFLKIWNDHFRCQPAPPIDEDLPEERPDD

Adenosine receptor A3 = biological target: T4, Adenosine receptor A3 (Homo sapiens, UniProt P0DMS8); assay type: cell membranes, CHO-K1, Membrane;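 note: radioligand binding assay with AB-MECA serving as the labeled ligand; in other assays of this panel Not Active means under 50% inhibition at 10 µM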
T4 sequence (P0DMS8 whole entry): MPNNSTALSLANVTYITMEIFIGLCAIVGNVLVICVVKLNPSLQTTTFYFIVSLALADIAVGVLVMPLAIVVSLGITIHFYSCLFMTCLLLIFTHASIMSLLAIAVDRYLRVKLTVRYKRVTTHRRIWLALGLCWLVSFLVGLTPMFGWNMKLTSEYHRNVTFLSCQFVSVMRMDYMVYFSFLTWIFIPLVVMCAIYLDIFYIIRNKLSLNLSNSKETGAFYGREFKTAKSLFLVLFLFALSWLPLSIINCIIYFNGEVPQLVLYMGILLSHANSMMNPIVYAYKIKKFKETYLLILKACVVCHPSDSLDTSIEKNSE

Chain of 5-hydroxytryptamine receptor 6 (P50406 whole entry): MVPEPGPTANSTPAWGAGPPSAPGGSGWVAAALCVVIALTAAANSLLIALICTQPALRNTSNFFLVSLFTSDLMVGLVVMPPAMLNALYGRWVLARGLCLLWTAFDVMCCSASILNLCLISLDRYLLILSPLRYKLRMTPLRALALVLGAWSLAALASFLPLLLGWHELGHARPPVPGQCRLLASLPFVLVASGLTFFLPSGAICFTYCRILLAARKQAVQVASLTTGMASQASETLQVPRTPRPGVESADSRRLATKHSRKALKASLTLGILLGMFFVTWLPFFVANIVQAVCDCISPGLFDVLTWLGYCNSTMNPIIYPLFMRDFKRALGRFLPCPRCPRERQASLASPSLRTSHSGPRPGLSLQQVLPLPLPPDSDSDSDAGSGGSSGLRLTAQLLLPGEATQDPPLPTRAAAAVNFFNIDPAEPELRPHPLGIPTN

CC(N)C12CC3CC(CC(C3)C1)C2 (centres undefined) [RIMANTADINE]
Not Active: IC50 [1] | Ki [1] | IC50 ([2]; hela) | IC50 (D(4) dopamine receptor) | IC50 [3] | Ki [3] | IC50 [4] | IC50 (Adenosine receptor A1) | IC50 (Adenosine receptor A3; cho-k1)

CS(=O)(=O)c1ccc(C2=C(c3ccccc3)C(=O)OC2)cc1 [ROFECOXIB]
Not Active: IC50 [1] | Ki [1] | IC50 ([2]; hela) | IC50 (D(4) dopamine receptor) | IC50 [3] | Ki [3] | IC50 [4] | IC50 (Adenosine receptor A1) | IC50 (Adenosine receptor A3; cho-k1)

CCOc1cc(N)c(Cl)cc1C(=O)NCC1CN(Cc2ccc(F)cc2)CCO1 (centres undefined) [MOSAPRIDE]
Not Active: IC50 [1] | Ki [1] | IC50 ([2]; hela) | IC50 (D(4) dopamine receptor) | IC50 [3] | Ki [3] | IC50 [4] | IC50 (Adenosine receptor A1) | IC50 (Adenosine receptor A3; cho-k1)

Cc1ccnc(NS(=O)(=O)c2ccc(N)cc2)n1 [SULFAMERAZINE]
Not Active: IC50 [1] | Ki [1] | IC50 ([2]; hela) | IC50 (D(4) dopamine receptor) | IC50 [3] | Ki [3] | IC50 [4] | IC50 (Adenosine receptor A1) | IC50 (Adenosine receptor A3; cho-k1)

OC[C@@H](O)[C@@H](O)[C@H](O)[C@H](O)CO [MANNITOL]
Not Active: IC50 [1] | Ki [1] | IC50 ([2]; hela) | IC50 (D(4) dopamine receptor) | IC50 [3] | Ki [3] | IC50 [4] | IC50 (Adenosine receptor A1) | IC50 (Adenosine receptor A3; cho-k1)

Oc1ccc(/C=C/c2cc(O)cc(O)c2)cc1 [RESVERATROL]
Not Active: IC50 [1] | Ki [1] | IC50 ([2]; hela) | IC50 (D(4) dopamine receptor) | IC50 [3] | Ki [3] | IC50 [4] | IC50 (Adenosine receptor A1) | IC50 (Adenosine receptor A3; cho-k1)

CC1=C(/C=C/C(C)=C/C=C/C(C)=C/C(=O)O)C(C)(C)CCC1 [TRETINOIN]
2.98 µM: Ki (Adenosine receptor A3; read-out: Ki)
5.27 µM: IC50 (Adenosine receptor A3; read-out: IC50)
Not Active: IC50 [1] | Ki [1] | IC50 ([2]; hela) | IC50 (D(4) dopamine receptor) | IC50 [3] | Ki [3] | IC50 [4] | IC50 (Adenosine receptor A1)

C=CCc1ccc2c(c1)OCO2 [SAFROLE]
Not Active: IC50 [1] | Ki [1] | IC50 ([2]; hela) | IC50 (D(4) dopamine receptor) | IC50 [3] | Ki [3] | IC50 [4] | IC50 (Adenosine receptor A1) | IC50 (Adenosine receptor A3; cho-k1)

CCN(CC)N=O [N-NITROSODIETHYLAMINE]
Not Active: IC50 [1] | Ki [1] | IC50 ([2]; hela) | IC50 (D(4) dopamine receptor) | IC50 [3] | Ki [3] | IC50 [4] | IC50 (Adenosine receptor A1) | IC50 (Adenosine receptor A3; cho-k1)

CCN1CCCC1CNC(=O)c1cc(S(N)(=O)=O)ccc1OC (centres undefined) [SULPIRIDE]
Not Active: IC50 [1] | Ki [1] | IC50 ([2]; hela) | IC50 (D(4) dopamine receptor) | IC50 [3] | Ki [3] | IC50 [4] | IC50 (Adenosine receptor A1) | IC50 (Adenosine receptor A3; cho-k1)

O=C1CC[C@@]2(O)[C@H]3Cc4ccc(O)c5c4[C@@]2(CCN3CC2CC2)[C@H]1O5 [NALTREXONE]
Not Active: IC50 [1] | Ki [1] | IC50 ([2]; hela) | IC50 (D(4) dopamine receptor) | IC50 [3] | Ki [3] | IC50 [4] | IC50 (Adenosine receptor A1) | IC50 (Adenosine receptor A3; cho-k1)

C[N+]1(C)[C@@H]2C[C@@H](OC(=O)[C@H](CO)c3ccccc3)C[C@H]1[C@@H]1O[C@@H]12.[Br-] [METHSCOPOLAMINE BROMIDE]
Not Active: IC50 [1] | Ki [1] | IC50 ([2]; hela) | IC50 (D(4) dopamine receptor) | IC50 [3] | Ki [3] | IC50 [4] | IC50 (Adenosine receptor A1) | IC50 (Adenosine receptor A3; cho-k1)

CCN(CC)CCNC(=O)c1cc(Cl)c(N)cc1OC [METOCLOPRAMIDE]
Not Active: IC50 [1] | Ki [1] | IC50 ([2]; hela) | IC50 (D(4) dopamine receptor) | IC50 [3] | Ki [3] | IC50 [4] | IC50 (Adenosine receptor A1) | IC50 (Adenosine receptor A3; cho-k1)

O=C(OC[C@H]1O[C@@H](OC(=O)c2cc(O)c(O)c(OC(=O)c3cc(O)c(O)c(O)c3)c2)[C@H](OC(=O)c2cc(O)c(O)c(OC(=O)c3cc(O)c(O)c(O)c3)c2)[C@@H](OC(=O)c2cc(O)c(O)c(OC(=O)c3cc(O)c(O)c(O)c3)c2)[C@@H]1OC(=O)c1cc(O)c(O)c(OC(=O)c2cc(O)c(O)c(O)c2)c1)c1cc(O)c(O)c(OC(=O)c2cc(O)c(O)c(O)c2)c1 [TANNIC ACID]
Not Active: IC50 [1] | Ki [1] | IC50 ([2]; hela) | IC50 (D(4) dopamine receptor) | IC50 [3] | Ki [3] | IC50 [4] | IC50 (Adenosine receptor A1) | IC50 (Adenosine receptor A3; cho-k1)

CN1C(=O)OC(C)(C)C1=O [TRIMETHADIONE]
Not Active: IC50 [1] | Ki [1] | IC50 ([2]; hela) | IC50 (D(4) dopamine receptor) | IC50 [3] | Ki [3] | IC50 [4] | IC50 (Adenosine receptor A1) | IC50 (Adenosine receptor A3; cho-k1)

Cc1cn([C@H]2C=C[C@@H](CO)O2)c(=O)[nH]c1=O [STAVUDINE]
Not Active: IC50 [1] | Ki [1] | IC50 ([2]; hela) | IC50 (D(4) dopamine receptor) | IC50 [3] | Ki [3] | IC50 [4] | IC50 (Adenosine receptor A1) | IC50 (Adenosine receptor A3; cho-k1)

CN1C[C@H](CNC(=O)OCc2ccccc2)C[C@@H]2c3cccc4c3c(cn4C)C[C@H]21 [METERGOLINE]
Not Active: IC50 [1] | Ki [1] | IC50 (D(4) dopamine receptor) | IC50 [3] | Ki [3] | IC50 [4] | IC50 (Adenosine receptor A1) | IC50 (Adenosine receptor A3; cho-k1)
0.028 µM: IC50 ([2]; read-out: IC50)
0.013 µM: Ki [2]

Cc1cc2c(s1)Nc1ccccc1N=C2N1CCN(C)CC1 [OLANZAPINE]
Not Active: IC50 (D(4) dopamine receptor) | IC50 [4] | IC50 (Adenosine receptor A1) | IC50 (Adenosine receptor A3; cho-k1)

CN(C)CCC=C1c2ccccc2COc2ccccc21 [DOXEPIN]
Not Active: IC50 (D(4) dopamine receptor) | IC50 [4] | IC50 (Adenosine receptor A1) | IC50 (Adenosine receptor A3; cho-k1)

CNCCCC12CCC(c3ccccc31)c1ccccc12 [MAPROTILINE]
0.892 µM: IC50 ([2]; read-out: IC50)
Not Active: IC50 (D(4) dopamine receptor) | IC50 [4] | IC50 (Adenosine receptor A1) | IC50 (Adenosine receptor A3; cho-k1)
0.414 µM: Ki [2]

Source: ChEMBL document CHEMBL1909046, “DrugMatrix in vitro pharmacology data”
